The text below walks through data of patent US20260355182A1, “ISOQUINOLINE DERIVATIVE, SYNTHESIS METHOD THEREFOR, AND USE THEREOF” (Harbin Gloria Pharmaceuticals Co., Ltd., priority 2023, published 2026).

Assay [1] has as its system SK-N-SH cells (Pgk1 knockdown). Put plainly: Seahorse mitochondrial respiration in Pgk1-knockdown and normal SK-N-SH cells. Conditions: 10 μM. The class given is cell-based, human.
Protocol: Cellular mitochondrial stress was detected using a Seahorse XFe analyzer (XFe-24, Seahorse Bioscience, Billerica, MA, UAS) to measure the oxygen consumption rate (OCR). SH-SKN cell lines were seeded in a 24-well plate compatible with the Seahorse XFe analyzer. After 24 hours, cells were treated with DMSO (0.01%) or various drugs (10 μM). Cellular mitochondrial stress was detected 12 hours after drug treatment. For the mitochondrial stress test, 97.2 mL of Seahorse basal medium (Seahorse Bioscience, Billerica, MA, UAS) was taken and heated in a water bath to 37 °C, and 1 mL of a stock solution was added. The stock solution was prepared by mixing the following solutions: 1 mL of 200 mM L-glutamine solution (Sigma), 1 mL of 100 mM pyruvate solution (Sigma), and 800 μL of 2.5 M glucose solution, and the pH of the stock solution was adjusted to 7.4 with 1 M NaOH solution. Before detection, the probe plate was taken out, and 1 mL of XF Carlibrant solution (Seahorse Bioscience) was added to the probe plate. The plate was then incubated overnight in a CO2-free constant temperature incubator at 37 °C. After drug treatment, the cells were removed and washed twice with preheated Seahorse basal medium at 37 °C, ensuring that 500 μL of Seahorse basal medium remained in each well. The cells were incubated in a CO2-free constant temperature incubator at 37 °C for 1 hour. […]
Assay [2] addresses T1, Pgk1 (Homo sapiens, UniProt P00558).
T1 sequence (P00558 1-417): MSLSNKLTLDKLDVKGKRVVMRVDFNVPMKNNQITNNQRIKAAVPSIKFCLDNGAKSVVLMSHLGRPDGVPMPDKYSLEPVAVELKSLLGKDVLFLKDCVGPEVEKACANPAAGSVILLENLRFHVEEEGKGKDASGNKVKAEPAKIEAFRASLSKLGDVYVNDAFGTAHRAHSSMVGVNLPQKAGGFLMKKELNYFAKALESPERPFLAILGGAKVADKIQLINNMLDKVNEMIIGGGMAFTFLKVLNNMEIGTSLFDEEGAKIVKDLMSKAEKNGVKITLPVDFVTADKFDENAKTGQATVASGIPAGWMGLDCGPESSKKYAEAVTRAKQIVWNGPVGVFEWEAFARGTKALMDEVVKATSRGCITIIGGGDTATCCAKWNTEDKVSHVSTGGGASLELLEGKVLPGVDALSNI
Put plainly: T6 binding affinity with Pgk1 by SPR. As to conditions: steady-state affinity model. From the text: Surface plasmon resonance (SPR) was used to measure the interaction between the small molecule T6 and Pgk1. Equilibrium binding responses at increasing T6 concentrations were fitted using a steady-state affinity model. In FIG. 9, diamonds represent the measured response units (RU), and the black curve indicates the fitted binding isotherm. […] The vertical line marks the calculated KD value.
Background: SPR reads the build-up and loss of mass on a sensor chip optically.

Another assay relates to SKN cells (Pgk1 shRNA). The assay is described as follows: Mitochondrial respiration in SKN cells with Pgk1 shRNA (Seahorse). Format: cell-based. How it is done:
SKN cells were transduced with Pgk1 shRNA to reduce endogenous Pgk1 expression and were subsequently treated with vehicle control or compound T6. […] GAPDH was used as a loading control; B) mitochondrial respiration was assessed by Seahorse extracellular flux analysis and is expressed as oxygen consumption rate (OCR; pmol/min/10^4 cells). Oligomycin, FCCP, and rotenone plus antimycin were sequentially added to evaluate basal respiration, ATP-linked respiration, maximal respiratory capacity, and non-mitochondrial respiration. […] In contrast, Pgk1 knockdown reduced mitochondrial respiratory activity and diminished the respiration-enhancing effect of T6. […] Data are presented as mean±SD, with individual points representing replicate measurements. Statistical significance is indicated as **P<0.001; ns, not significant. […] The data support Pgk1 as a functional cellular target mediating the metabolic activity of T6.

Assay [3] concerns MPTP-induced Parkinsonian mouse model. Put plainly: MPTP-induced Parkinsonian mouse model, rotarod and TH Western blot (T6). As to conditions: T6 0.15, 0.3 and 1.5 mg/kg. The class given is in vivo. As to the method:
Mice were administered MPTP at 20 mg/kg to induce Parkinsonian motor impairment and dopaminergic neuronal injury. […] In FIG. 13, A) motor coordination and endurance were assessed using the rotarod test and are expressed as the time remaining on the rotating rod. […] Actin was used as a loading control. […] Data are presented as mean±error bars, with individual points representing biological replicates. Significance of one-way ANOVA analysis is indicated as P<0.05 (*), P<0.01 (**), and P<0.001 (***).

The next assay has as its system SOD1G93A transgenic mice. The assay is described as follows: High-copy-number SOD1G93A ALS model mice, body weight and survival. Format: in vivo. As to conditions: 0.2 mg/kg i.p. once daily from 80 days of age. How it is done:
High-copy-number SOD1G93A transgenic mice, a genetic model of amyotrophic lateral sclerosis (ALS), were treated with compound T6 or vehicle control beginning at 80 days of age. T6 was administered once daily by intraperitoneal injection at 0.2 mg/kg, and control animals received PBS. Disease-associated slowing of movement was observed beginning at approximately 90 days of age. […] The control group included 7 mice, and the T6-treated group included 5 mice. T6 treatment shifted the survival curve to the right, indicating an extension of survival after initiation of treatment (survival analysis, p=0.072).

In assay [4] the test system is db/db mice. The assay is described as follows: Acute glucose-response assay in non-fasted db/db mice. The class given is in vivo. As to conditions: s.c., 2 h; TZ 0.5, liraglutide 0.6, T6 0.5 mg/Kg. How it is done:
(§1) The db/db mice were used to evaluate the glucose-lowering activity of compound T6 in comparison with reference metabolic agents (TZ 0.5 mg/Kg, liraglutide 0.6 mg/Kg, T6 0.5 mg/Kg). In FIG. 15, A) for the acute glucose-response assay, drugs were administered to non-fasted db/db mice. Immediately after drug administration (s. c.), mice were deprived of food and water, and blood glucose levels were measured from tail blood samples 2 h later. The relative percentage change in blood glucose was calculated by comparing glucose levels before and after treatment in the same animal. […] HbA1c levels were then measured using a glycated hemoglobin A1c enzyme-linked immunosorbent assay, also referred to as a mouse HbA1c ELISA assay. […] Data are presented as mean±error bars, with individual circles representing individual animals. Statistical significance is indicated as P<0.001 (**) and P<0.0001 (***).

For assay [5], the system named is db/db mice. The assay is described as follows: Chronic treatment assay, HbA1c in db/db mice (ELISA). The class given is in vivo. Conditions: drinking water 2 weeks, particularly T6 1.5 mg/kg, vs untreated control. As to the method:
as §1
(An ELISA detects its analyte on a solid surface through an enzyme-linked reagent.)

For assay [6], the target named is T1, Pgk1. The assay is described as follows: In vitro biochemical Pgk1 enzymatic activity assay (NADH production). Details: GAPDH-coupled NADH assay. As to conditions: role: activator, 1.6 mM GAP, 1 mM β-NAD, 1 mM ADP. How it is done:
Human Pgk1 cDNA was cloned into the pEASYTM-E2 vector (TransGen Biotech) containing a His tag. Protein expression was induced in BL21(DE3) chemocompetent cells (TransGen Biotech) with 0.5 mM IPTG. After lysing cells in extraction buffer (20 mM sodium phosphate, 500 mM NaCl, 5 mM imidazole, 5% glycerol, protease inhibitor cocktail, pH 7.9), the supernatant was purified with nickel beads (AdarBiotech). The His-tagged Pgk1 was eluted with the elution buffer (20 mM sodium phosphate, 500 mM NaCl, 80 mM imidazole, protease inhibitor cocktail, pH 7.9). The activity of Pgk1 can be measured by monitoring the rate of NADH production, as NADH accumulated as the reaction proceeded. Purified Pgk1-His protein ([…]) was added to the reaction buffer (20 mM Tris, 100 mM NaCl, 2 mM DTT, 0.1 mM MgSO4, 10 mM NaHPO4, pH 8.6), and the substrates (1.6 mM GAP, 1 mM β-NAD, 1 mM ADP, 20 ng/μL GAPDH) was added. […] After reaction for 10 minutes at room temperature, the absorbance wavelength at 339 nm was measured using a microplate reader (Molecular Devices, SpectraMax i3x), and this wavelength corresponds to NADH levels.

Molecules are shown by their SMILES. pKd: −log10 of the molar value. Like-named read-outs stand apart in the source and are kept apart here.

For the compound `Nc1nc(N2CCN(C(=O)[C@H]3CCCO3)CC2)cc2cc3c(cc12)OCC3` [Compound T6], the “Basal and maximum respiratory rate, normal cells” value in assay [1] (normal (control) cells) was “activated both the basal respiratory rate and maximum respiratory rate”. In addition, the “Basal and maximum respiratory rate, shPgk1 knockdown cells” value in assay [1] (shPgk1 knockdown cells) is reported as “this activity was absent in shPgk1 knockdown cells”. Further, at Pgk1 [2], the “Estimated Rmax” value is 7.799 RU. Besides, the pKd (commonly the negative decadic logarithm of the Kd, by convention in mol/L) is around 4.65 at Pgk1 [2] (read-out: KD (approximately)) and 4.65 at Pgk1 [2] (read-out: KD (fitted dissociation constant)). In addition, in the assay with SKN cells (Pgk1 shRNA) (Pgk1 shRNA-expressing SKN cells), the “Basal respiration and maximal respiration (OCR), Pgk1 shRNA cells” value is “no significant increase”. Also, the “Basal respiration and maximal respiration (OCR), control cells” value in the assay with SKN cells (Pgk1 shRNA) (control SKN cells) was “significantly increased both basal respiration and maximal respiration”. For the same compound, in assay [3] (MPTP 20 mg/kg), the Rotarod performance entry is “improved rotarod performance in MPTP-treated mice, with significant protective effects”. The TH protein abundance entry in assay [3] (normalized to actin, vs MPTP alone) is recorded as “significantly increased relative TH abundance”. The Survival entry in the assay with SOD1G93A transgenic mice (vs PBS) is on record as “delayed mortality”. Besides, in the assay with SOD1G93A transgenic mice (81 to 123 days of age), the Body weight result is “maintained body weight more effectively”. Besides, the “Acute change in blood glucose” value in the assay on db/db mice [4] was “marked reduction in blood glucose”. The HbA1c level entry in the assay with db/db mice [5] is “reduced HbA1c levels”. Moreover, the “Concentration for best activation of Pgk1” value at Pgk1 [6] (20 ng/μL GAPDH, pH 8.6, 10 minutes) was 0.1 µM. In addition, the “Inhibition of Pgk1 at the tested concentrations” value at Pgk1 [6] (all tested concentrations) is given as “none of the concentrations can inhibit Pgk1”.
